Reference: PubChem BioAssay (NCI)
Several values for one entry are separate records, joined by “and”; a condition that tells them apart may be missing. Equal entries are not always repeated.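 48-hour exposure; five concentrations; linearly interpolated endpoints. At the GI50, growth is halved. TGI: total growth inhibition.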

Legend:
Experiment in all cases: DTP human tumour cell line panel, 48 h
SR leukemia = test system: SR leukemia
MDA-MB-231 breast = test system: MDA-MB-231 breast
CCRF-CEM leukemia = test system: CCRF-CEM leukemia
CAKI-1 renal = test system: CAKI-1 renal
HCT-116 colon = test system: HCT-116 colon
TK-10 renal = test system: TK-10 renal
HCC-2998 colon = test system: HCC-2998 colon
SK-MEL-5 melanoma = test system: SK-MEL-5 melanoma
HCT-15 colon = test system: HCT-15 colon
SF-539 CNS = test system: SF-539 CNS

SMILES | GI50 (SR leukemia) | TGI (SR leukemia) | GI50 (MDA-MB-231 breast) | TGI (MDA-MB-231 breast) [µM] | GI50 (CCRF-CEM leukemia) | TGI (CCRF-CEM leukemia) [µM] | GI50 (CAKI-1 renal) [µM] | TGI (CAKI-1 renal) | GI50 (HCT-116 colon) | TGI (HCT-116 colon) [µM] | GI50 (TK-10 renal) | TGI (TK-10 renal) | GI50 (HCC-2998 colon) | TGI (HCC-2998 colon) | GI50 (SK-MEL-5 melanoma) | TGI (SK-MEL-5 melanoma) | GI50 (HCT-15 colon) | TGI (HCT-15 colon) [µM] | GI50 (SF-539 CNS) | TGI (SF-539 CNS) [µM]
O=C(Nc1cc(Cl)ccc1O)c1cccc(NC2=C(Cl)C(=O)N(Cc3ccccc3)C2=O)c1 | 4.8 µM | 22.8 µM | 16.8 µM | 40.3 | 2.14 µM | 11.5 | 22.5 | 68 µM | 17.2 µM | 31 | 37.3 µM | 95.5 µM | 17 µM | 32.1 µM | 17 µM | 31.5 µM | 13.3 µM | 27.6 | 27.2 µM | 58.9
CN(C)CCNC(=O)c1cc([N+](=O)[O-])ccn1 |  | > 100 µM |  | 58.1 |  | 91.8 |  | > 100 µM |  | 61.4 |  | > 100 µM |  | > 100 µM |  | 41.5 µM |  | 41 |  | 59.4
O=C(N/N=C/c1ccc(O)cc1O)c1ccc(Nc2ccnc(C(F)(F)F)c2)cc1 | > 100 µM | > 100 µM | 5.83 µM | 57.2 | 0.0913 µM | > 100 | 0.0533 | 1.8 µM | 39.1 µM | > 100 | 2.06 µM | > 47.1 µM | > 75.2 µM | > 100 µM | > 100 µM | > 100 µM | > 100 µM | > 100 | 6.32 µM | 24.5
O=C(c1cc(-c2cc3c(cc2C(=O)N2Cc4ccccc4C[C@H]2CN2CCOCC2)OCO3)n2c1CCCC2)N(c1ccccc1)c1ccc(O)cc1 | 3.09 µM | > 100 µM | 10.9 µM | 53.3 | 3.34 µM | > 100 | 3.56 | > 100 µM | 13.6 µM | > 100 | 27.8 µM | > 100 µM | 4.93 µM | 61.3 µM | 3.78 µM | 18.6 µM | 3.54 µM | > 100 | 15.7 µM | > 100
CN1CCN(Cc2ccc(NC(=O)c3[nH]ncc3Nc3ncnc4c3CCC4)cc2)CC1 | 0.438 µM | 3.05 µM | 2.98 µM | 7.8 | 0.611 µM | 11 | 2.73 | 11.1 µM | 0.454 µM | 11.4 | 4.02 µM | 8.85 µM | 3.02 µM | 11.6 µM | 0.874 µM | 13.3 µM | 1.67 µM | 12.6 | 0.52 µM | 2.61
N#CSCC1CC(O)(c2ccccc2)C(c2ccccc2)C(c2ccc(F)cc2)O1 (stereo not given) | 0.344 µM | 3.02 µM | 2.53 µM | 8.62 | 3.09 µM | > 100 | 2.39 | 5.46 µM | 1.28 µM | 2.9 | 2.38 µM | 6.3 µM | 10.7 µM | 23 µM | 4.84 µM | 17.2 µM | 3.05 µM | 10.2 | 3.15 µM | 7.69
Cc1c(CN2CCC(Nc3ncnc4sc(CC(F)(F)F)cc34)CC2)ccc2c1cc(C#N)n2Cc1cn[nH]c1 | 0.571 µM and 1.36 µM | 3.68 µM and 5.19 µM | 2.32 µM and 4.04 µM | 7.12 | 2.98 µM and 2.97 µM | > 33.7 | 4.43 | 22.1 µM and > 40.3 µM | 1.12 µM and 1.99 µM | 2.4 | 11.6 µM and > 35.2 µM | 26.2 µM and > 52.3 µM | 1.86 µM and 2.8 µM | 4.38 µM and 10.9 µM | 0.967 µM and 0.958 µM | 2.61 µM and 3.02 µM | 2.62 µM and 3.24 µM | 10.3 | 7.37 µM and 15 µM | > 51.4
COc1ccc(C2=C(c3cn(C)c4ccccc34)C(=O)NC2=O)cc1OC | 2.48 µM | > 25 µM | 10.7 µM | > 25 | 6.38 µM | > 25 | 5.78 | > 25 µM | 6.68 µM | > 25 | 9.2 µM | > 25 µM | > 22.3 µM | > 25 µM | 6.11 µM | > 22.3 µM | 6.4 µM | > 25 | 5.51 µM | > 18.1
CCOc1cc2ncc(C#N)c(Nc3ccc(F)c(Cl)c3)c2cc1NC(=O)/C=C/CN(C)C | 0.414 µM | 2.4 µM | 0.882 µM | 5.07 | 1.13 µM | > 7.16 | 0.0278 | 0.952 µM | 0.333 µM | 1.83 | 0.00445 µM | 0.506 µM | 1.13 µM | > 10 µM | 2.93 µM | > 10 µM | 0.245 µM | 4.07 | 0.826 µM | 2.31
COc1cc(-c2cn(-c3ccc(Cl)cc3)c(=O)[nH]2)cc(OC)c1OC | 0.034 µM | 39.1 µM | > 100 µM | > 100 | > 100 µM | > 100 | > 100 | > 100 µM | > 100 µM | > 100 | > 100 µM | > 100 µM | > 100 µM | > 100 µM | > 100 µM | > 100 µM | > 100 µM | > 100 | > 100 µM | > 100
Cc1ccc2c(=O)[nH]sc2c1 |  | 18.7 µM |  | 31.2 |  | 13.9 |  | 17.8 µM |  | > 100 |  | 33.9 µM |  | 36.9 µM |  | 25.6 µM |  | 39.4 |  | 26.9
O=C1C(Cl)=C(N2CCOCC2)C(=O)c2ccccc21 | 2.77 µM | 7.87 µM | 1.75 µM | 3.72 | 2.53 µM | 6.77 | 1.88 | 3.49 µM | 1.86 µM | 3.37 | 16.7 µM | 30.4 µM | 12 µM | 25.6 µM | 6.82 µM | 19.4 µM | 2.11 µM | 4.33 | 20.1 µM | 34.6
COc1cc2c(OC)c(c1)CCCC1=CC(=O)C=C(CCC2)C1=O |  | > 56.5 µM |  | > 66.4 |  | 20.1 |  | > 100 µM |  | 38.1 |  | > 100 µM |  | > 100 µM |  | > 100 µM |  | 98.4 |  | > 69.4
